In patent publication US20220168276A1, “Mehods and Compositions for Treating SARS-CoV-2 Infection using Carboxyamidotriazole Orotate” (priority 2020, published 2022):
pEC50, pIC50: −log10 of the molar value. Entries after “also recorded” stand apart in the source; their conditions may differ.

Tests used:
[1] = in vivo; cited from earlier work
[2] = cited from earlier work
[3] = tested on: imatinib mesylate-resistant chronic myeloid leukemia cells; details: by down-regulating bcr-abl; cited from earlier work
human T-cells = details: cited from earlier work
[4] = tested on: non-infected Vero E6 cells; assay type: cell-based; details: cell viability, read-out: EC 50 in non-infected Vero E6 cells
SARS-CoV-2 [5] = details: Vero E6 cells
Cytokines in plasma = assay: Phase I trial of CTO in cancer patients: plasma cytokine levels by Milliplex/Luminex panel; assay type: in vivo, human; parameters: key to GM-CSF plasma level / IFNα2 plasma level / IFNγ plasma level / IL-10 plasma level / IL-12p40 plasma level / IL-12p70 plasma level / IL-13 plasma level / IL-15 plasma level / IL-17A plasma level / IL-1RA plasma level / IL-2 plasma level / IL-4 plasma level / IL-6 plasma level / IL-8 plasma level / IP-10 plasma level / MIP1a plasma level / RANTES plasma level / IL-1β plasma level / TNFα plasma level / VEGF plasma level / EGF plasma level: + increased; − decreased
Description: Such an approach described above is based on unexpected findings when CTO was given to cancer patients who volunteered to participate in Phase I clinical studies of CTO to establish its safety and tolerability.
In a Phase I trial of CTO testing the safety and tolerability of CTO in cancer patients, Plasa samples were obtained from three patients after administration of different doses of CTO daily as follows: 1) NSCLC Patient 002-46 (CTO 555 mg/m2), 2) NSCLC Patient 002-50 (CTO 427 mg/m2) and 3) Ovarian Cancer Patient 002-53(CTO 427 mg/m2) The levels of cytokines were measured by using the HCYTMAG-60K-PX30/Milliplex MAP Human Cytokine/Chemokine Magnetic Bead Panel from Milliplex, USA.

SARS-CoV-2 [6] = assay type: in vivo; details: one patient, 600 mg daily oral, second day
[7] = tested on: Akt and Erk1/2 phosphorylation; details: exosomes stimulated HUVEC cell; cited from earlier work
[8] = cancer patients, CTO 427-555 mg/m2 daily, vs baseline

## NC(=O)c1nnn(Cc2cc(Cl)c(C(=O)c3ccc(Cl)cc3)c(Cl)c2)c1N [CAI, carboxyamidotriazole]
[1]
  TNF-α and IL-1β at the site of inflammation and in serum: decreased
  vascular permeability stimulated by VEGF or histamine: inhibited
[2]; animals
  colitis scored macroscopically and microscopically: inhibited
[2]; in vivo
  NF-kB activation: prevented
  production of fibrinogenic cytokine transforming growth factor β: inhibited
[2]; serum, supernatant of peritoneal macrophages and lamina propria
  production of TNF-α, IL-1β and IL-6: inhibited
[3]
  apoptosis: induces apoptosis
Human T-cells
  calcium influx and HIV LTR transcription dependent on it: modulated

## NC(=O)c1nnn(Cc2cc(Cl)c(C(=O)c3ccc(Cl)cc3)c(Cl)c2)c1N.O=C(O)c1cc(=O)[nH]c(=O)[nH]1 [CTO, 5-amino-1-(4-(4-chlorobenzyl)-1,2,3-triazole-4-carboxamide orotate]
[4]
  pEC50: 4.83
SARS-CoV-2 [5]; read-out: IC50, cytopathic effect (CPE) for SARS-CoV-2, 72 hours post-inoculation, 20 μM highest dose tested
  pIC50: < 4.70

## NC(=O)c1nnn(Cc2cc(Cl)c(C(=O)c3ccc(Cl)cc3)c(Cl)c2)c1N.O=C(O)c1cc(=O)[nH]c(=O)[nH]1 [CTO]
Cytokines in plasma; [8]
  EGF plasma level: EGF- (+)
  GM-CSF plasma level: GM-CSF- (−)
  IFNα2 plasma level: IFNα2- (+)
  IFNγ plasma level: IFNγ- (−)
  IL-1RA plasma level: IL-1RA- (−)
  IL-1β plasma level: **IL-1β- (−)
  IL-2 plasma level: IL-2- (−)
  IL-4 plasma level: IL-4- (−)
  IL-6 plasma level: IL-6- (−)
  IL-8 plasma level: IL-8-(−)
  IL-10 plasma level: IL-10- (+)
  IL-12p40 plasma level: IL-12p40- (+)
  IL-12p70 plasma level: IL-12p70- (−)
  IL-13 plasma level: IL-13-(−)
  IL-15 plasma level: IL-15- (−)
  IL-17A plasma level: IL-17A- (−)
  IP-10 plasma level: IP-10- (−)
  MIP1a plasma level: MIP1a- (−)
  RANTES plasma level: RANTES- (+)
  TNFα plasma level: **TNFα- (−)
  VEGF plasma level: VEGF- (−)
Cytokines in plasma; plasma, CTO 427 mg/m2 to 555 mg/m2
  levels of cytokines including EGF, IFN α2, IL-10, IL-12p40: increase
Cytokines in plasma; plasma, CTO 427 mg/m2 to 555 mg/m2, forty-eight hours interval after CTO, vs baseline
  levels of several cytokines including VEGF, GM-CSF, INF-γ, IL-2, IL-12p70, IL-13, IL-15, IL-17a, IL-1RA, IL-1α, IL-2, IL1-4, IL-6, IL-8, il-10, MIP1-α, IL-1β, TNF-α: reduced; also recorded: reduction
SARS-CoV-2 [6]
  COVID-19 symptoms: great improvement in most of the symptoms
SARS-CoV-2 [6]; lost twelve pounds before treatment
  body weight: remained at constant weight
SARS-CoV-2 [5]
  concentration up to which CTO inhibited replication of SARS-CoV-2: up to 5 μM
SARS-CoV-2 [5]; CTO up to 5 μM
  cell viability: above 90%
SARS-CoV-2 [5]; recorded <20 μM concentration
  Maximum % Inhibition of CPE: 29.03%
[7]
  Akt and Erk1/2 phosphorylation: inhibits
